Laboratory results from PubChem BioAssay (NCI).
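Cultured in 96-well plates, cells were exposed to test compound for 48 hours across five concentrations. Here, GI50 denotes the concentration required for 50% inhibition of growth. TGI: total growth inhibition.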

Legend:
Experiment in all cases: DTP human tumour cell line panel, 48 h
786-0 renal = tested on: 786-0 renal
A498 renal = tested on: A498 renal
A549 NSCLC = tested on: A549 NSCLC
ACHN renal = tested on: ACHN renal
BT-549 breast = tested on: BT-549 breast
CAKI-1 renal = tested on: CAKI-1 renal
CCRF-CEM leukemia = tested on: CCRF-CEM leukemia
COLO 205 colon = tested on: COLO 205 colon
DU-145 prostate = tested on: DU-145 prostate
EKVX NSCLC = tested on: EKVX NSCLC
HCC-2998 colon = tested on: HCC-2998 colon
HCT-116 colon = tested on: HCT-116 colon
HCT-15 colon = tested on: HCT-15 colon
HL-60(TB) leukemia = tested on: HL-60(TB) leukemia
HOP-62 NSCLC = tested on: HOP-62 NSCLC
HOP-92 NSCLC = tested on: HOP-92 NSCLC
HS 578T breast = tested on: HS 578T breast
HT29 colon = tested on: HT29 colon
IGROV1 ovarian = tested on: IGROV1 ovarian
K-562 leukemia = tested on: K-562 leukemia
KM12 colon = tested on: KM12 colon
LOX IMVI melanoma = tested on: LOX IMVI melanoma
M14 melanoma = tested on: M14 melanoma
MALME-3M melanoma = tested on: MALME-3M melanoma
MCF7 breast = tested on: MCF7 breast
MDA-MB-231 breast = tested on: MDA-MB-231 breast
MDA-MB-435 = tested on: MDA-MB-435
MDA-N = tested on: MDA-N
MOLT-4 leukemia = tested on: MOLT-4 leukemia
NCI-H226 lung = tested on: NCI-H226 lung
NCI-H23 lung = tested on: NCI-H23 lung
NCI-H460 lung = tested on: NCI-H460 lung
NCI-H522 lung = tested on: NCI-H522 lung
OVCAR-3 ovarian = tested on: OVCAR-3 ovarian
OVCAR-5 ovarian = tested on: OVCAR-5 ovarian
OVCAR-8 ovarian = tested on: OVCAR-8 ovarian
PC-3 prostate = tested on: PC-3 prostate
RPMI-8226 leukemia = tested on: RPMI-8226 leukemia
RXF 393 renal = tested on: RXF 393 renal
SF-268 CNS = tested on: SF-268 CNS
SF-295 CNS = tested on: SF-295 CNS
SF-539 CNS = tested on: SF-539 CNS
SK-MEL-2 melanoma = tested on: SK-MEL-2 melanoma
SK-MEL-28 melanoma = tested on: SK-MEL-28 melanoma
SK-MEL-5 melanoma = tested on: SK-MEL-5 melanoma
SK-OV-3 ovarian = tested on: SK-OV-3 ovarian
SN12C renal = tested on: SN12C renal
SNB-19 CNS = tested on: SNB-19 CNS
SNB-75 CNS = tested on: SNB-75 CNS
SR leukemia = tested on: SR leukemia
SW-620 colon = tested on: SW-620 colon
T-47D breast = tested on: T-47D breast
U251 CNS = tested on: U251 CNS
UACC-257 melanoma = tested on: UACC-257 melanoma
UACC-62 melanoma = tested on: UACC-62 melanoma
UO-31 renal = tested on: UO-31 renal
NCI/ADR-RES ovarian = tested on: NCI/ADR-RES ovarian
OVCAR-4 ovarian = tested on: OVCAR-4 ovarian
TK-10 renal = tested on: TK-10 renal

Work on Oc1ccccc1C(c1cc2c(cc1O)OCO2)N1CCOCC1 (stereo not given) yielded a TGI (786-0 renal) of 22.6 µM, a TGI (A498 renal) of 42.2 µM and a TGI (A549 NSCLC) of 57.6 µM. It also gave a TGI (ACHN renal) of 31.5 µM, a TGI (BT-549 breast) of 30.9 µM and a TGI (CAKI-1 renal) of 35.9 µM. It also gave a TGI (CCRF-CEM leukemia) of 5.26 µM, a TGI (COLO 205 colon) of 34.8 µM and a TGI (DU-145 prostate) greater than 100 µM. The TGI (EKVX NSCLC) was greater than 100 µM, the TGI (HCC-2998 colon) was 33.9 µM and the TGI (HCT-116 colon) was 31.5 µM. It also gave a TGI (HCT-15 colon) of 36.8 µM, a TGI (HL-60(TB) leukemia) of 4.27 µM and a TGI (HOP-62 NSCLC) greater than 100 µM. For the same compound, the TGI (HOP-92 NSCLC) was 34.1 µM, the TGI (HS 578T breast) was 56.4 µM and the TGI (HT29 colon) was 35.2 µM. It also gave a TGI (IGROV1 ovarian) of 35.7 µM, a TGI (K-562 leukemia) of 23.5 µM and a TGI (KM12 colon) of 43 µM. It also gave a TGI (LOX IMVI melanoma) of 43.4 µM, a TGI (M14 melanoma) of 34.3 µM and a TGI (MALME-3M melanoma) of 32.2 µM. It also gave a TGI (MCF7 breast) of 38.3 µM, a TGI (MDA-MB-231 breast) of 36.1 µM and a TGI (MDA-MB-435) of 34.9 µM. The TGI (MDA-N) was 37.6 µM, the TGI (MOLT-4 leukemia) was 40.6 µM and the TGI (NCI-H226 lung) was greater than 100 µM. For the same compound, the TGI (NCI-H23 lung) was 46.6 µM, the TGI (NCI-H460 lung) was 72.7 µM and the TGI (NCI-H522 lung) was 24.3 µM. The TGI (OVCAR-3 ovarian) was 31.6 µM, the TGI (OVCAR-5 ovarian) was 57.8 µM and the TGI (OVCAR-8 ovarian) was 44.7 µM. The TGI (PC-3 prostate) was 31.6 µM, the TGI (RPMI-8226 leukemia) was 41.7 µM and the TGI (RXF 393 renal) was 30.8 µM. For the same compound, the TGI (SF-268 CNS) was 36.9 µM, the TGI (SF-295 CNS) was 41.6 µM and the TGI (SF-539 CNS) was 39.2 µM. It also gave a TGI (SK-MEL-2 melanoma) of 36 µM, a TGI (SK-MEL-28 melanoma) of 38.5 µM and a TGI (SK-MEL-5 melanoma) of 31.7 µM. The TGI (SK-OV-3 ovarian) was greater than 100 µM, the TGI (SN12C renal) was 34.3 µM and the TGI (SNB-19 CNS) was 37.2 µM. It also gave a TGI (SNB-75 CNS) of 32 µM, a TGI (SR leukemia) of 24.6 µM and a TGI (SW-620 colon) of 70.8 µM. The TGI (T-47D breast) was 33.8 µM, the TGI (U251 CNS) was 30.2 µM and the TGI (UACC-257 melanoma) was 36.1 µM. For the same compound, the TGI (UACC-62 melanoma) was 32.3 µM and the TGI (UO-31 renal) was 29.3 µM.

Cc1nn(-c2ccc(S(=O)(=O)[O-])cc2)c([O-])c1N=[N+](C)c1ccc(-c2ccc(N=Nc3ccc4c(S(=O)(=O)[O-])cc(S(=O)(=O)[O-])c(N)c4c3[O-])c([O-])c2)cc1[O-].[Cu+2].[Cu+2].[Na+] showed a GI50 (786-0 renal) greater than 100 µM, a TGI (786-0 renal) greater than 100 µM and a GI50 (A498 renal) greater than 100 µM. It also gave a TGI (A498 renal) greater than 100 µM, a GI50 (A549 NSCLC) greater than 100 µM and a TGI (A549 NSCLC) greater than 100 µM. For the same compound, the GI50 (ACHN renal) was greater than 100 µM, the TGI (ACHN renal) was greater than 100 µM and the GI50 (BT-549 breast) was greater than 100 µM. The TGI (BT-549 breast) was greater than 100 µM, the GI50 (CAKI-1 renal) was greater than 100 µM and the TGI (CAKI-1 renal) was greater than 100 µM. It also gave a GI50 (CCRF-CEM leukemia) greater than 100 µM, a TGI (CCRF-CEM leukemia) greater than 100 µM and a GI50 (COLO 205 colon) greater than 100 µM. For the same compound, the TGI (COLO 205 colon) was greater than 100 µM, the GI50 (DU-145 prostate) was greater than 100 µM and the TGI (DU-145 prostate) was greater than 100 µM. The GI50 (EKVX NSCLC) was greater than 100 µM, the TGI (EKVX NSCLC) was greater than 100 µM and the GI50 (HCC-2998 colon) was greater than 100 µM. It also gave a TGI (HCC-2998 colon) greater than 100 µM, a GI50 (HCT-116 colon) greater than 100 µM and a TGI (HCT-116 colon) greater than 100 µM. It also gave a GI50 (HCT-15 colon) greater than 100 µM, a TGI (HCT-15 colon) greater than 100 µM and a GI50 (HOP-62 NSCLC) greater than 100 µM. For the same compound, the TGI (HOP-62 NSCLC) was greater than 100 µM, the GI50 (HOP-92 NSCLC) was greater than 100 µM and the TGI (HOP-92 NSCLC) was greater than 100 µM. It also gave a GI50 (HS 578T breast) greater than 100 µM, a TGI (HS 578T breast) greater than 100 µM and a GI50 (HT29 colon) greater than 100 µM. It also gave a TGI (HT29 colon) greater than 100 µM, a GI50 (IGROV1 ovarian) greater than 100 µM and a TGI (IGROV1 ovarian) greater than 100 µM. For the same compound, the GI50 (K-562 leukemia) was greater than 100 µM, the TGI (K-562 leukemia) was greater than 100 µM and the GI50 (KM12 colon) was greater than 100 µM. For the same compound, the TGI (KM12 colon) was greater than 100 µM, the GI50 (M14 melanoma) was greater than 100 µM and the TGI (M14 melanoma) was greater than 100 µM. For the same compound, the GI50 (MALME-3M melanoma) was greater than 100 µM, the TGI (MALME-3M melanoma) was greater than 100 µM and the GI50 (MCF7 breast) was greater than 100 µM. For the same compound, the TGI (MCF7 breast) was greater than 100 µM, the GI50 (MDA-MB-231 breast) was greater than 100 µM and the TGI (MDA-MB-231 breast) was greater than 100 µM. It also gave a GI50 (MDA-MB-435) greater than 100 µM, a TGI (MDA-MB-435) greater than 100 µM and a GI50 (MDA-N) greater than 100 µM. For the same compound, the TGI (MDA-N) was greater than 100 µM, the GI50 (MOLT-4 leukemia) was greater than 100 µM and the TGI (MOLT-4 leukemia) was greater than 100 µM. For the same compound, the GI50 (NCI-H226 lung) was greater than 100 µM, the TGI (NCI-H226 lung) was greater than 100 µM and the GI50 (NCI-H23 lung) was greater than 100 µM. The TGI (NCI-H23 lung) was greater than 100 µM, the GI50 (NCI-H460 lung) was greater than 100 µM and the TGI (NCI-H460 lung) was greater than 100 µM. It also gave a GI50 (NCI-H522 lung) greater than 100 µM, a TGI (NCI-H522 lung) greater than 100 µM and a GI50 (NCI/ADR-RES ovarian) greater than 100 µM. It also gave a TGI (NCI/ADR-RES ovarian) greater than 100 µM, a GI50 (OVCAR-3 ovarian) greater than 100 µM and a TGI (OVCAR-3 ovarian) greater than 100 µM. The GI50 (OVCAR-4 ovarian) was greater than 100 µM, the TGI (OVCAR-4 ovarian) was greater than 100 µM and the GI50 (OVCAR-5 ovarian) was greater than 100 µM. It also gave a TGI (OVCAR-5 ovarian) greater than 100 µM, a GI50 (OVCAR-8 ovarian) greater than 100 µM and a TGI (OVCAR-8 ovarian) greater than 100 µM. It also gave a GI50 (PC-3 prostate) greater than 100 µM, a TGI (PC-3 prostate) greater than 100 µM and a GI50 (RPMI-8226 leukemia) greater than 100 µM. The TGI (RPMI-8226 leukemia) was greater than 100 µM, the GI50 (RXF 393 renal) was greater than 100 µM and the TGI (RXF 393 renal) was greater than 100 µM. For the same compound, the GI50 (SF-268 CNS) was greater than 100 µM, the TGI (SF-268 CNS) was greater than 100 µM and the GI50 (SF-295 CNS) was greater than 100 µM. For the same compound, the TGI (SF-295 CNS) was greater than 100 µM, the GI50 (SF-539 CNS) was greater than 100 µM and the TGI (SF-539 CNS) was greater than 100 µM. The GI50 (SK-MEL-2 melanoma) was greater than 100 µM, the TGI (SK-MEL-2 melanoma) was greater than 100 µM and the GI50 (SK-MEL-28 melanoma) was greater than 100 µM. For the same compound, the TGI (SK-MEL-28 melanoma) was greater than 100 µM, the GI50 (SK-MEL-5 melanoma) was greater than 100 µM and the TGI (SK-MEL-5 melanoma) was greater than 100 µM. For the same compound, the GI50 (SK-OV-3 ovarian) was greater than 100 µM, the TGI (SK-OV-3 ovarian) was greater than 100 µM and the GI50 (SN12C renal) was greater than 100 µM. It also gave a TGI (SN12C renal) greater than 100 µM, a GI50 (SNB-19 CNS) greater than 100 µM and a TGI (SNB-19 CNS) greater than 100 µM. It also gave a GI50 (SNB-75 CNS) greater than 100 µM, a TGI (SNB-75 CNS) greater than 100 µM and a GI50 (SR leukemia) greater than 100 µM. The TGI (SR leukemia) was greater than 100 µM, the GI50 (SW-620 colon) was greater than 100 µM and the TGI (SW-620 colon) was greater than 100 µM. For the same compound, the GI50 (T-47D breast) was greater than 100 µM, the TGI (T-47D breast) was greater than 100 µM and the GI50 (TK-10 renal) was greater than 100 µM. It also gave a TGI (TK-10 renal) greater than 100 µM, a GI50 (U251 CNS) greater than 100 µM and a TGI (U251 CNS) greater than 100 µM. For the same compound, the GI50 (UACC-257 melanoma) was greater than 100 µM, the TGI (UACC-257 melanoma) was greater than 100 µM and the GI50 (UACC-62 melanoma) was greater than 100 µM. The TGI (UACC-62 melanoma) was greater than 100 µM, the GI50 (UO-31 renal) was 3.19 µM and the TGI (UO-31 renal) was greater than 100 µM.
